Measured values reported in US20030130308A1, “Drugs for spinal anesthesia” (priority 2001, published 2003).
“Also recorded” adds a separate entry of the source. Counter-ions that a name gives are not always drawn. Marks after values point to notes of the source that are not given here.

Columns and labels:
rats [1] = assay: Placing reflex (cumulative placing score) after intrathecal injection; type: in vivo; conditions: rat; for Cumulative Placing Score: median (range)
Experimental: (§1) Rats were tested before 15 minutes through 240 minutes after intrathecal injection of 5 nmoles (in 10 μl) of 6-[2-(1(2)H-tetrazole-5-yl)ethyl]decahydroisoquinolone-3-carboxylic acid. Sensory function was tested at the hindpaw using withdrawal response to pinprick and withdrawal to pinch with a sharp forceps. Motor performance (ambulation, the placing reflex and Rotarod time), blood pressure and heart rate was also evaluated. Some tests were repeated the next day. Responses after 6-[2-(1(2)H-tetrazole-5-yl)ethyl]decahydroisoquinolone-3-carboxylic acid were compared to injection of 40 μl of bupivacaine, 0.75%. Pinprick responses at the forepaw, chest, abdomen, hindleg and hindpaw were also examined after intrathecal 6-[2-(1(2)H-tetrazole-5-yl)ethyl]decahydroisoquinolone-3-carboxylic acid.
(§2) Rats were anesthetized with halothane. The lumbar region was shaved, prepared with povidone-iodine, made kyphotic and incised 2 to 3 cm longitudinally in the midline at the level of the iliac crests. The space between the 5th and 6th lumbar vertebrae was punctured with 23G hypodermic needle and a 32G PU catheter (10 cm length, OD 0.0107 inches and ID 0.005 inches) reinforced with a Teflon coated stainless steel stylet (0.003 inches) was advanced through the needle cranially. The needle and the stylet were removed and the catheter withdrawn so that 6.5-7 cm extended outside of the lumbar masculature. The catheter was fixed to the fascia, sutured, inserted into an 8 cm length of PE-10 tubing and secured with glue covered with epoxy. The catheter was tunneled under the skin to the cervical region, flushed with saline and sealed with a cautery pen. The dead space of the catheter was 4.5 to 5 μl. The skin was closed and the rat was allowed to recover from anesthesia for 2-3 days.
(§3) Rats were trained over a two-day period. Training began by placing the rat on a Rotarod (Stoelting, Wood Dale, Ill.) that was fixed for three minutes. Then, three series of trials separated by 2-3 hours were performed. During each trial, the rat was placed on the Rotarod accelerating for the first 20 s then at a constant rate of approximately 5 rpm, until a 180 s cut off time. If the rat fell at any time during the initial trial, the trial was repeated. Each rat was allowed three attempts per trial. On the second day, the same procedure was repeated, though acceleration was sustained for 120 s to approximately 12 rpm, with a 150 second cut off time. On day 3, the test day, rats are again placed on the Rotarod and accelerated for 120 seconds to 12 rpm with the cutoff time of 150 seconds. Each rat was permitted 4 attempts at 15 minute intervals. Those successful in 2 of the 4 attempts continued in the protocol, and the average of the 4 attempts was considered the baseline (pre). After a two-hour period, the test drug was administered and rats were examined once on the Rotarod at 30, 60, 90, 120, 180, and 240 minutes. […] Then the placing reflex was tested. Rats were placed on a table and the dorsum of either hindpaw was drawn across the edge of the table; this elicits a lifting of the paw onto the surface of the table (2=normal; 1=delay of 1-2 sec.; 0=more than 2 sec.). This test was performed 3 times for each hindlimb after each ambulation test. The sum of the three trials on both paws were recorded ([…]).
(§4) The dose and volume of drugs injected intrathecally were determined from the dose required to produce hindlimb sensory and motor loss in preliminary experiments. Bupivacaine HCl (0.75% in 8.25% dextrose for spinal injection) was purchased from Abbott Laboratories (Chicago, Ill.). The intrathecal injection volume was 40 μl. The compound was dissolved in 10% dextrose and water. The injection volume was 1 ul. All intrathecal drug injections were followed by a flush of 10 μl preservative-free saline.

rats [2] = assay: Ambulation score after intrathecal injection; type: in vivo; conditions: rat; for Ambulation Score: median (range)
Experimental: as §1, §2, §3, §4

rats [3] = assay: Segmental pinprick testing at hindpaw, hindleg, abdomen, chest and forepaw after intrathecal injection; type: in vivo; conditions: rat
Experimental: as §1
In a separate group of rats (n=5), the response to pinprick was tested once on the left hindpaw, the left hindleg, the lower abdomen, the chest and the left forepaw in rats injected with intrathecal 6-[2-(1(2)H-tetrazole-5-yl)ethyl]decahydroisoquinolone-3-carboxylic acid. Withdrawal, muscle contraction, or attempted escape reaction to pinprick was considered a positive test whereas their absence was considered a negative response. This test was not blinded.

rats [4] = assay: Withdrawal response to pinprick after infiltration into the left hind paw; type: in vivo; conditions: rat
Experimental: Withdrawal response to pinprick were also tested before and after infiltration of (50 nmoles in 100 μl) of 6-[2-(1(2)H-tetrazole-5-yl)ethyl]decahydroisoquinolone-3-carboxylic acid into the left hind paw (n=5). Responses were recorded before injection of 6-[2-(1(2)H-tetrazole-5-yl)ethyl]decahydroisoquinolone-3-carboxylic acid and at 15, 30 and 60 minutes after injection. This test was not blinded.

[5] = local infiltration of the drug in the incision; previously reported by this inventor; cited from earlier work
[6] = LY293558 5 nmoles IT, n=8, 24 hrs
[7] = LY293558 5 nmoles IT, n=8, Pre (before drug injection)
[8] = Bupivacaine 0.75% 40 μl IT, n=8, 15 min
[9] = Bupivacaine 0.75% 40 μl IT, n=8, 30 min
[10] = Bupivacaine 0.75% 40 μl IT, n=8, 60 min
[11] = Bupivacaine 0.75% 40 μl IT, n=8, 90 min
[12] = Bupivacaine 0.75% 40 μl IT, n=8, 120 min
[13] = Bupivacaine 0.75% 40 μl IT, n=8, 180 min
[14] = Bupivacaine 0.75% 40 μl IT, n=8, 240 min
[15] = Bupivacaine 0.75% 40 μl IT, n=8, 24 hrs
[16] = Bupivacaine 0.75% 40 μl IT, n=8, Pre (before drug injection)
[17] = bupivacaine 0.75% 40 μl intrathecal

For `O=C(O)C1CC2CC(CCc3nnn[nH]3)CCC2CN1` (stereo not shown) [LY293558, 6-[2-(1(2)H-tetrazole-5-yl)ethyl]decahydroisoquinolone-3-carboxylic acid], the “placing reflex completely eliminated in all rats through” value (rats [1]; 5 nmoles intrathecal) was 90 min, the “placing reflex impaired through (P<0.05 vs Pre)” value (rats [1]; 5 nmoles intrathecal) was 3 h and the “Cumulative Placing Score” value (rats [1]; [6]) was 12 (12-12). The “Cumulative Placing Score” value (rats [1]; [7]) was 12 (12-12), the “time by which all rats had recovered ambulation” value (rats [2]; 5 nmoles intrathecal) was ≤ 4 h and the “ambulation significantly impaired through (P<0.05 vs Pre)” value (rats [2]; 5 nmoles intrathecal, from 15 minutes) was 90 min. The “Ambulation Score” value (rats [2]; LY293558 5 nmoles IT, n=8, 15 min) was 0 (0-0)*, the “Ambulation Score” value (rats [2]; LY293558 5 nmoles IT, n=8, 240 min) was 2 (2-2) and the “Ambulation Score” value (rats [2]; [6]) was 2 (2-2). The “Ambulation Score” value (rats [2]; [7]) was 2 (2-2), the “segmental blockade of the response to pinprick” value (rats [3]; 5 nmoles intrathecal) was “present” and the “evidence of sensory block of the forelimb” value (rats [3]; intrathecal, n=5, not blinded) was “in only one test at 15 minutes”. The “sensation to pinprick blocked below the chest in all rats through” value (rats [3]; intrathecal, n=5, not blinded) was 90 min, the “sensation to pinprick blocked in the hindlimb through” value (rats [3]; intrathecal, n=5, not blinded) was 120 min and the “change in withdrawal response to pinprick from baseline” value (rats [4]; 50 nmoles in 100 μl infiltrated into the hind paw, n=5) was “no change; also recorded: did not affect”. For the same compound, the “rats withdrawing to pinprick” value (rats [4]; 50 nmoles in 100 μl into the hind paw, n=5, at 15, 30 and 60 minutes) was “All five rats withdrew” and the “effect on pain after incision” value [5] was “no effect”.

In the case of `CCCCN1CCCCC1C(=O)Nc1c(C)cccc1C` (stereo not shown) [Bupivacaine, Bupivacaine HCl], the “Cumulative Placing Score” value (rats [1]; [8]) is reported as 0 (0-0)*, the “Cumulative Placing Score” value (rats [1]; [9]) is reported as 6 (0-12)* and the “Cumulative Placing Score” value (rats [1]; [10]) is reported as 12 (1-12). For the same compound, the “Cumulative Placing Score” value (rats [1]; [11]) was 12 (0-12), the “Cumulative Placing Score” value (rats [1]; [12]) was 12 (12-12) and the “Cumulative Placing Score” value (rats [1]; [13]) was 12 (12-12). The “Cumulative Placing Score” value (rats [1]; [14]) was 12 (12-12), the “Cumulative Placing Score” value (rats [1]; [15]) was 12 (12-12) and the “Cumulative Placing Score” value (rats [1]; [16]) was 12 (12-12). For the same compound, the “placing reflex decreased for (P<0.05 vs Pre)” value (rats [1]; [17]) was 30 min, the “Ambulation Score” value (rats [2]; [8]) was 0 (0-0)* and the “Ambulation Score” value (rats [2]; [9]) was 1 (0-2)*. For the same compound, the “Ambulation Score” value (rats [2]; [10]) was 2 (1-2), the “Ambulation Score” value (rats [2]; [11]) was 2 (1-2) and the “Ambulation Score” value (rats [2]; [12]) was 2 (2-2). The “Ambulation Score” value (rats [2]; [13]) was 2 (2-2), the “Ambulation Score” value (rats [2]; [14]) was 2 (2-2) and the “Ambulation Score” value (rats [2]; [15]) was 2 (2-2). The “Ambulation Score” value (rats [2]; [16]) was 2 (2-2) and the “ambulation decreased for (P<0.05 vs Pre)” value (rats [2]; [17]) was 30 min.
